Molecules are shown by their SMILES. Results filed as inconclusive are left out.

The assay concerns Clone20 osteoblast Shn3 3'UTR firefly luciferase, 24 h. The experiment in a line: Schnurri-3 3'UTR-luciferase signal suppressors – cell-based, Clone20 osteoblasts, luminescence, dry powder, set 2, dose response (AID 743417).
As to `O=S(=O)(Nc1cccc2ncccc12)c1cccs1`, the AC50 (commonly the concentration giving half of the maximal activity seen) is 4.3 µM.

`Cc1ccc(C)c(N2CCN(C(=O)CCS(=O)(=O)c3ccc4c(c3)NC(=O)C(C)S4)CC2)c1` (stereo not drawn): the AC50 is 4.47 µM.

For the compound `COc1ccc(-c2nc(-c3ccccn3)no2)cc1`, the AC50 was 1.92 µM.

On to `O=C(Nc1ccc(N2CCN(C(=O)c3ccc(Cl)cc3)CC2)cc1)c1ccc2c(c1)OCCO2`, for which the concentration at half-maximal activity (AC50) was 2.54 µM.

As to `O=c1cc(-c2ccc(O)cc2)oc2ccc3ccccc3c12`, the AC50 was 5.41 µM.

For `Oc1cccc2cc(Nc3ccccc3)cnc12`, the AC50 was 0.644 µM.

Consider `Cc1cc(NC(=O)CCCS(=O)(=O)c2nc(-c3cccs3)cc(C(F)(F)F)n2)no1`, for which the AC50 was 1.73 µM.

Regarding `Cc1ccc2nc(-c3cccc(SC4CCCCC4)c3)c(NCc3ccccc3)n2c1`, the AC50 was 3.53 µM.

Turning to `O=[N+]([O-])c1c(NCCO)cc(Sc2nc3ccccc3s2)c2nonc12`, the concentration at half-maximal activity (AC50) was 1.64 µM.

In the case of `CCN(CC)S(=O)(=O)c1cc(NC(=O)C2CCN(c3ncnc4sc(C)c(C)c34)CC2)ccc1Cl`, the AC50 was 5.08 µM.

As to `CC(=O)OCCNc1cc(Sc2nc3ccccc3[nH]2)c2nonc2c1[N+](=O)[O-]`, the AC50 is 1.86 µM.

As to `COc1ccccc1OCC(=O)c1[nH]c(C)c(C(C)=O)c1C`, the AC50 is 3.35 µM.

Turning to `C=CCNc1nc(N2CCCCC2)c(C#N)c2c1CN(Cc1ccccc1)CC2`, the AC50 was 16.8 µM.

The values are drawn from PubChem BioAssay AID743417 (Broad Institute, 2014).
